The values that follow come from PMC8041284, “Tunable Methacrylamides for Covalent Ligand Directed Release Chemistry” (Journal of the American Chemical Society, 2021).

For this experiment, the target named is BTK (Homo sapiens, UniProt Q06187). Nature of the experiment: biochemical.
Setting [1] is: read-out: BTK inhibition (%), 0.75 uM BTK, […] probe 3l, 15 min preincubation.

Like-named read-outs stand apart in the source and are kept apart here.

Chain of BTK (Q06187 402-655 limits assumed): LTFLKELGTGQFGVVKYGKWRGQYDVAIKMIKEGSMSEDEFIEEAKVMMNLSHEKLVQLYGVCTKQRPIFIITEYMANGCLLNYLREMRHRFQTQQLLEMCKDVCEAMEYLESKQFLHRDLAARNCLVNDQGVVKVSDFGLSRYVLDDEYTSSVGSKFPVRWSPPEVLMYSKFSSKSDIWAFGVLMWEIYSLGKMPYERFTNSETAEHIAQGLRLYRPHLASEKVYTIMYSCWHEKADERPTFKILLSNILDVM

For the compound `CCOC(=O)c1ccc(O)c(OC)c1` [PCM-0215087], the inhibition at 10 µM under setting [1] was -7.8%.

As to `COC(=O)CC[C@@H](C)[C@H]1CC[C@H]2[C@@H]3[C@H](O)C[C@@H]4C[C@H](O)CC[C@]4(C)[C@H]3C[C@H](O)[C@]12C` [PCM-0215088], under setting [1], the inhibition at 10 µM was -4.7%.

In the case of `Cc1ccc(C(C)C)cc2c(C)ccc1-2` [PCM-0215089], the inhibition at 10 µM under setting [1] was determined as 10.1%.

On to `CO/N=C(\C(=O)N[C@@H]1C(=O)N2C(C(=O)O)=CCS[C@H]12)c1csc(N)n1` [PCM-0215091], for which the inhibition at 10 µM under setting [1] turned out to be 7.8%.

With `C1CNCCNCCNCCN1` [PCM-0215094], under setting [1], the inhibition at 10 µM was -4.7%.

Take `C=C[C@@H]1C[C@]1(NC(=O)[C@@H]1C[C@@H](Oc2ncc(OC)c3ccc(Cl)cc23)CN1C(=O)[C@@H](NC(=O)OC(C)(C)C)C(C)(C)C)C(=O)NS(=O)(=O)C1CC1` [PCM-0215095]: the inhibition at 10 µM under setting [1] is -4.7%.

`C[C@]1(COc2ccc(N3CCC(Oc4ccc(OC(F)(F)F)cc4)CC3)cc2)Cn2cc([N+](=O)[O-])nc2O1` [PCM-0215096]: the inhibition at 10 µM under setting [1] was -1.5%.

On to `COc1ccc2c(O[C@@H]3C[C@H]4C(=O)N[C@]5(C(=O)NS(=O)(=O)C6CC6)C[C@H]5/C=C\CCCCN(C)C(=O)[C@@H]4C3)cc(-c3nc(C(C)C)cs3)nc2c1C` [PCM-0215097], for which, under setting [1], the inhibition at 10 µM stood at 55.6%.

Take `COc1ccc(-c2oc3cc(O)cc(O)c3c(=O)c2O)cc1` [PCM-0215098]: the inhibition at 10 µM under setting [1] is 5.5%.

With `CC[C@H]1OC(=O)[C@H](C)[C@@H](O[C@H]2C[C@@](C)(OC)[C@@H](O)[C@H](C)O2)[C@H](C)[C@@H](O[C@@H]2O[C@H](C)C[C@H](N(C)C)[C@H]2O)[C@](C)(O)C[C@@H](C)CN[C@H](C)[C@@H](O)[C@]1(C)O` [PCM-0215099], under setting [1], the inhibition at 10 µM is -13.2%.

For `CN(C)N(C)C(=O)[C@@]1(Cc2ccccc2)CCCN(C(=O)[C@@H](Cc2c[nH]c3ccccc23)NC(=O)C(C)(C)N)C1` [PCM-0215100], the inhibition at 10 µM under setting [1] is 4.6%.

For the compound `CC(C)(O)[C@@H]1CC[C@](C)([C@H]2[C@@H](O)C[C@@]3(C)[C@@H]4C[C@H](O)[C@H]5C(C)(C)[C@@H](O)CC[C@@]56C[C@@]46CC[C@]23C)O1` [PCM-0215101], under setting [1], the inhibition at 10 µM was -6.9%.

`C[C@H]1[C@H](C)CC[C@]2(C(=O)O[C@@H]3O[C@H](CO[C@@H]4O[C@H](CO)[C@@H](O[C@@H]5O[C@@H](C)[C@H](O)[C@@H](O)[C@H]5O)[C@H](O)[C@H]4O)[C@@H](O)[C@H](O)[C@H]3O)CC[C@]3(C)C(=CC[C@@H]4[C@@]5(C)C[C@@H](O)[C@H](O)[C@@](C)(CO)[C@@H]5[C@H](O)C[C@]43C)[C@H]12` [PCM-0215102]: the inhibition at 10 µM under setting [1] was 10.1%.

Consider `CCN(CC)CC(=O)Oc1ccc(NC(C)=O)cc1` [PCM-0215103], for which the inhibition at 10 µM under setting [1] was -0.8%.

On to `COc1cccc(-c2c(C)n(Cc3c(F)cccc3C(F)(F)F)c(=O)n(C[C@H](NCCCC(=O)O)c3ccccc3)c2=O)c1F` [PCM-0215104], for which the inhibition at 10 µM under setting [1] is -7%.

On to `COC(=O)c1ccc(O)c(C(=O)OC)c1` [PCM-0215105], for which the inhibition at 10 µM under setting [1] was -13.1%.

Take `CC(C)(C)c1cc(O)ccc1O` [PCM-0215107]: under setting [1], the inhibition at 10 µM was 5.5%.

Take `O=c1c(-c2ccc(O[C@@H]3O[C@H](CO)[C@@H](O)[C@H](O)[C@H]3O)cc2)coc2cc(O)cc(O)c12` [PCM-0215108]: under setting [1], the inhibition at 10 µM is -9.7%.

Take `CCc1ccc(C(=O)C(C)CN2CCCCC2)cc1` (stereo not drawn) [PCM-0215109]: the inhibition at 10 µM under setting [1] is -24.1%.

For `CCCCCOc1ccccc1/C(=C\SC)n1ccnc1` [PCM-0215110], the inhibition at 10 µM under setting [1] is -22.6%.

Turning to `CCCC(CCC)C(N)=O` [PCM-0215111], the inhibition at 10 µM under setting [1] worked out at 19.3%.

On to `CN[C@H]1C(=O)N[C@@H]2Cc3ccc(cc3)Oc3cc4cc(c3O[C@@H]3O[C@H](C(=O)O)[C@@H](O)[C@H](O)[C@H]3NC(=O)CCCCCCCCC(C)C)Oc3ccc(cc3Cl)[C@@H](O)[C@@H]3NC(=O)[C@H](NC(=O)[C@@H]4NC(=O)[C@@H](NC2=O)c2cc(cc(O)c2Cl)Oc2cc1ccc2O)c1ccc(O)c(c1)-c1c(O[C@H]2O[C@H](CO)[C@@H](O)[C@H](O)[C@@H]2O)cc(O)cc1[C@@H](C(=O)NCCCN(C)C)NC3=O` [PCM-0215113], for which the inhibition at 10 µM under setting [1] was found to be 73.2%.

Consider `CCCOC(C(=O)OC1CCN(C)CC1)(c1ccccc1)c1ccccc1` [PCM-0215115], for which the inhibition at 10 µM under setting [1] was -24.1%.

Turning to `CC(=O)CC/C=C(\C)CC/C=C(\C)CC/C=C(\C)CCC=C(C)C` [PCM-0215116], the inhibition at 10 µM under setting [1] was 2.3%.

In the case of `CCCCCCCCN=c1ccn(CCCCCCCCCCn2ccc(=NCCCCCCCC)cc2)cc1` [PCM-0215117], under setting [1], the inhibition at 10 µM was -64.1%.

On to `N#Cc1ccc(Oc2ccc3c(c2)COB3O)cc1` [PCM-0215118], for which the inhibition at 10 µM under setting [1] is 8.5%.

Turning to `O=C(O)COCCN1CCN([C@H](c2ccccc2)c2ccc(Cl)cc2)CC1` [PCM-0215119], under setting [1], the inhibition at 10 µM is -6.2%.

Take `OCCc1c[nH]c2ccccc12` [PCM-0215120]: the inhibition at 10 µM under setting [1] was -24.1%.

In the case of `O=C(O)Cc1ccc(O)cc1` [PCM-0215121], under setting [1], the inhibition at 10 µM worked out at 25.7%.

On to `O=C(O)c1ccco1` [PCM-0215122], for which the inhibition at 10 µM under setting [1] was -21.8%.

In the case of `CN(CCO)CC(O)Cn1cnc2c1c(=O)n(C)c(=O)n2C` (stereo not drawn) [PCM-0215123], the inhibition at 10 µM under setting [1] was 9.3%.

With `N/C(=N\N=C\c1ccc(Cl)cc1)N/N=C/c1ccc(Cl)cc1` [PCM-0215125], the inhibition at 10 µM under setting [1] came out at 77.8%.

On to `NCC(CC(=O)O)c1ccccc1` (stereo not drawn) [PCM-0215126], for which the inhibition at 10 µM (read-out: BTK inhibition (%)) was -9.3%.

As to `CN1[C@@H]2CC[C@H]1CC(O)C2` (stereo partly drawn) [PCM-0215128], the inhibition at 10 µM (read-out: BTK inhibition (%)) is -7.8%.

In the case of `CC(=O)O[C@H]1[C@H]2[C@@H](OC(=O)Cc3ccccc3)[C@@H](C)C[C@]2(OC(C)=O)C(=O)/C(C)=C/[C@@H]2[C@H](CC[C@@]13CO3)C2(C)C` [PCM-0215129], where the note is “read-out: BTK inhibition (%)”, the inhibition at 10 µM is -14%.

Regarding `OC[C@H]1O[C@H](O[C@H]2[C@H](O)[C@@H](O)C(O)O[C@@H]2CO)[C@H](O)[C@@H](O)[C@@H]1O` (stereo partly drawn) [PCM-0215131], the inhibition at 10 µM under setting [1] was found to be 0%.

On to `O=C(O)c1c[nH]c2ccccc12` [PCM-0215132], for which, under setting [1], the inhibition at 10 µM came to 6.2%.

On to `O=C1Cc2ccccc2N1` [PCM-0215133], for which the inhibition at 10 µM under setting [1] turned out to be 1.6%.

Take `Cc1nnc(SCC2=C(C(=O)O)N3C(=O)[C@@H](NC(=O)Cn4cc(Cl)c(=O)c(Cl)c4)[C@H]3SC2)s1` [PCM-0215135]: the inhibition at 10 µM under setting [1] was -13.2%.

With `O=C(Nc1ccc(Br)cc1)c1c(O)cccc1O` [PCM-0215136], the inhibition at 10 µM under setting [1] was 3.9%.

As for `C/C(=C\CNc1ncnc2nc[nH]c12)CO` [PCM-0215137], under setting [1], the inhibition at 10 µM is -13.2%.

Regarding `O=S1(=O)CCN(CN2CCS(=O)(=O)NC2)CN1` [PCM-0215138], the inhibition at 10 µM under setting [1] worked out at 0%.

For `Nc1ccnc(=O)[nH]1` [PCM-0215139], under setting [1], the inhibition at 10 µM was -5.4%.

As for `O=C[C@H](O)[C@H]1OC(=O)[C@@H](O)[C@H]1O` [PCM-0215140], the inhibition at 10 µM under setting [1] is -1.4%.

In the case of `OC1CC2CCC(C1)N2` (stereo not drawn) [PCM-0215141], the inhibition at 10 µM under setting [1] is -1.6%.

Take `Nc1ccc(S(=O)(=O)Nc2cncc(Cl)n2)cc1` [PCM-0215142]: the inhibition at 10 µM under setting [1] is -10.9%.

As for `COc1cc(S(=O)(=O)O)ccc1O` [PCM-0215143], the inhibition at 10 µM under setting [1] is -7%.

Consider `C[C@@H]1CC[C@H]2C(C)(C)C3CC12CC[C@@]3(C)O` (stereo partly drawn) [PCM-0215144], for which, under setting [1], the inhibition at 10 µM stood at 8.6%.

Take `O=C(O)/C=C(/CC(=O)O)C(=O)O` [PCM-0215145]: the inhibition at 10 µM under setting [1] was -0.8%.

Turning to `COc1cc(CO)cc(OC)c1O` [PCM-0215146], the inhibition at 10 µM under setting [1] is -6.2%.

As for `C[C@H](CCC(=O)NCC(=O)O)[C@H]1CC[C@H]2[C@@H]3[C@H](O)C[C@@H]4C[C@H](O)CC[C@]4(C)[C@H]3C[C@H](O)[C@]12C` [PCM-0215147], the inhibition at 10 µM under setting [1] was -10.1%.

For the compound `O=Cc1ccccc1O[C@@H]1O[C@H](CO)[C@@H](O)[C@H](O)[C@H]1O` [PCM-0215148], the inhibition at 10 µM under setting [1] was -15.6%.

Regarding `C1=Cc2ccccc2Nc2ccccc21` [PCM-0215149], under setting [1], the inhibition at 10 µM worked out at 4.7%.

For the compound `CCCCc1nc(C)c(CC(=S)N(C)C)c(=O)n1Cc1ccc(-c2ccccc2-c2nn[nH]n2)cc1` [PCM-0215150], the inhibition at 10 µM under setting [1] was -6.2%.

Consider `CC1=C(C(=O)OCCN(Cc2ccccc2)c2ccccc2)C(c2cccc([N+](=O)[O-])c2)C(P2(=O)OCC(C)(C)CO2)=C(C)N1` (stereo not drawn) [PCM-0215151], for which, under setting [1], the inhibition at 10 µM is 7.8%.

For `O=C(Nc1cc(Cl)cc(Cl)c1O)c1c(O)c(Cl)cc(Cl)c1Cl` [PCM-0215152], the inhibition at 10 µM under setting [1] amounted to 18.5%.

As for `CCC(C(=O)O)c1ccc(N2Cc3ccccc3C2=O)cc1` (stereo not drawn) [PCM-0215153], under setting [1], the inhibition at 10 µM is -18.5%.

Turning to `C[C@@H](O)[C@H]1C(=O)N2C(C(=O)O)=C([C@H]3CCCO3)S[C@H]12` [PCM-0215154], the inhibition at 10 µM under setting [1] is -2.3%.

With `CO/N=C(\C(=O)N[C@@H]1C(=O)N2C(C(=O)O)=C(CSc3nc(C)c(CC(=O)O)s3)CS[C@H]12)c1csc(N)n1` [PCM-0215155], under setting [1], the inhibition at 10 µM is -2.3%.

As for `O=C(Nc1ccc([N+](=O)[O-])cc1)Nc1ccc([N+](=O)[O-])cc1` [PCM-0215156], the inhibition at 10 µM under setting [1] was -14%.

In the case of `c1csc(-c2ccc(-c3cccs3)s2)c1` [PCM-0215157], under setting [1], the inhibition at 10 µM was determined as 0%.

Take `C/C=C/C=C/C(=O)O` [PCM-0215158]: under setting [1], the inhibition at 10 µM stood at 0%.

For `CC(C)[C@H](C)[C@@H](O)[C@H](O)[C@@H](C)[C@H]1CC[C@H]2[C@@H]3COC(=O)[C@H]4C[C@H](O)[C@H](O)C[C@]4(C)[C@H]3CC[C@]12C` [PCM-0215160], under setting [1], the inhibition at 10 µM is -10.1%.

Consider `CC(C)=CCC[C@](C)(O[C@@H]1O[C@H](CO)[C@@H](O)[C@H](O)[C@H]1O)[C@H]1CC[C@]2(C)[C@@H]1[C@H](O)C[C@@H]1[C@@]3(C)CC[C@H](O)C(C)(C)[C@@H]3[C@@H](O[C@@H]3O[C@H](CO)[C@@H](O)[C@H](O)[C@H]3O[C@@H]3OC[C@@H](O)[C@H](O)[C@H]3O)C[C@]12C` [PCM-0215161], for which, under setting [1], the inhibition at 10 µM turned out to be 5.5%.

In the case of `O=Cc1ccc(O)c(O)c1` [PCM-0215162], the inhibition at 10 µM under setting [1] came out at 5.4%.

For `N[C@@H](Cc1cc(I)c(O)c(I)c1)C(=O)O` [PCM-0215163], the inhibition at 10 µM under setting [1] was -31.9%.

The inhibition is the relative decrease from the control value, in per cent.
